From paper PMC4570246 (Cancer letters, 2015)

Molecular target: β-tubulin (Homo sapiens, UniProt P07437)
Assay: SPR
Assay type: binding

Sequence of β-tubulin (P07437 whole entry): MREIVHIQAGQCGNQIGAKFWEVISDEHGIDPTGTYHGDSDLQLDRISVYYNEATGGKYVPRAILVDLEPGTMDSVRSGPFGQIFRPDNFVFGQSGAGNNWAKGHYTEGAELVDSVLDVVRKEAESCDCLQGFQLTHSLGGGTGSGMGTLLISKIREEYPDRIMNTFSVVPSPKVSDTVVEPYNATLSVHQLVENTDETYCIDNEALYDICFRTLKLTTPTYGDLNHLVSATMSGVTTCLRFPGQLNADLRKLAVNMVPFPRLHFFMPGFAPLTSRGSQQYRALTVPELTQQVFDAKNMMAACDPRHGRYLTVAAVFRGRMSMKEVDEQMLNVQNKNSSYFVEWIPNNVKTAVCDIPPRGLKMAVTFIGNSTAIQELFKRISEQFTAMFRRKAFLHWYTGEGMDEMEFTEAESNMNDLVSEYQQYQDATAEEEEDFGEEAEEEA

| Kd [nM] | Compound |
| --- | --- |
| 1590 | O=c1c(O)c(-c2ccc(O)c(O)c2)oc2cc(O)ccc12 [fisetin] |
| 2260 | CC(=O)O[C@H]1C(=O)[C@@]2(C)[C@H]([C@H](OC(=O)c3ccccc3)[C@]3(O)C[C@H](OC(=O)[C@H](O)[C@@H](NC(=O)c4ccccc4)c4ccccc4)C(C)=C1C3(C)C)[C@]1(OC(C)=O)CO[C@@H]1C[C@@H]2O [paclitaxel] |
